Earlier results on one substance are cited in patent US11091809B2, “Molecular diagnostic test for cancer” (ALMAC DIAGNOSTICS LIMITED, priority 2012, dated 2021).

For data set [1], the system named is rectal cancer. The settings on record: bevacizumab monotherapy.
Data set [2] concerns renal cancer. The settings on record: bevacizumab monotherapy.
In data set [3] the test system is ovarian cancer. The settings on record: bevacizumab monotherapy.
Data set [4] deals with primary peritoneal carcinoma, fallopian tube carcinoma, and epithelial ovarian carcinoma. The conditions noted are these: ICON7.

Turning to “bevacizumab: recombinant humanised version of a murine anti-human VEGF monoclonal antibody”, the “patients showing partial regression” value in data set [1] is 33%; in data set [2], 10%; in data set [3], 21%. Besides, the “hazard ratio for death” value in data set [4] (bevacizumab group, patients at high risk of progression (FIGO stage IV or stage III with greater than 1.0 cm residual disease after debulking surgery)) is reported as 0.64. For the same substance, the “hazard ratio for progression-free survival” value in data set [4] (standard chemotherapy (carboplatin and paclitaxel) and bevacizumab vs standard chemotherapy) was 0.81.
